Results from patent US11407750B2, “Derivatives of an FGFR inhibitor” (Incyte Corporation, priority 2019, dated 2022).
Read-outs that look alike come from different tables or passages of the source.

Legend:
[1] = Compound 1 human absorption, metabolism, and excretion study (single oral dose of [14C] Compound 1); format: in vivo; details: for % of Administered Dose in Feces Samples, Sum: sum 0-144 h; for % Total Radioactivity Pool of Hamilton Pools (0-24 h): blood/plasma samples
Procedure: An open label-study was conducted, assessing the mass balance, pharmacokinetics, and metabolite profiles of a single oral dose of [14C] Compound 1:
Blood/plasma, urine, and feces were collected from participants for 4 to 10 days after administration.
Human discharge criteria includes that a minimum of 90% of the administered radioactive dose is recovered; and that less than or equal to 1% of the administered radioactive dose is recovered in excreta (urine and feces combined) in 2 consecutive 24-hour urine and fecal collection samples.

[2] = Permeability in Caco-2 cells (absorptive direction A-B); format: in vitro ADME; details: human, Caco-2, 4% BSA in receiver, read-out: CACO2 Pm
Procedure: (§1) Caco-2 cells were grown in 96-well transwell plates with a seeding density of 14000 cell/well in DMEM medium. To determine the permeability in the absorptive direction (A-B), the test compound in HBSS was added to the donor compartment (apical side), and 4% BSA in HBSS was added into the receiver compartment (basolateral side). To determine whether a compound is a P-gp substrate, permeability values were measured in both the A-B and B-A directions (bidirectional transport assay) in the absence of 4% BSA. Digoxin and cyclosporine A were included as positive controls for P-gp substrate and inhibitor, respectively, to ensure the functionality of P-gp in the bidirectional transport assay. The test compound at various concentrations was added in the donor compartment (apical side for A-B transport and basolateral side for B-A transport) while HBSS solution was added in the receiver compartment (basolateral side for A-B transport and apical side for B-A transport). For permeability studies in the A-B direction, the donor volume was 0.075 mL, and the receiver volume was 0.25 mL. For permeability studies in the B-A direction, the donor volume was 0.25 mL, and the receiver volume was 0.075 mL. The incubation was carried out at 37° C. for 120 minutes. Transepithelial electrical resistance (TEER) was measured before and after the 120 minutes incubation to ensure the integrity of the cell monolayers. At the end of the incubation period, samples were removed from both the donor and receiver sides and mixed with acetonitrile for protein precipitation. The supernatants were collected after centrifugation for analysis using LC-MS/MS method.
(§2) Permeability coefficient (Papp) values from Caco-2 studies were determined using the following equation: Papp(cm/s)=(F*VD)/(SA*MD) where the flux rate (F, mass/time) was calculated from the slope of cumulative amounts of compound of interest on the receiver side, SA is the surface area of the cell membrane, VD is the donor volume, and MD is the initial amount of the solution in the donor chamber.

[3] = target: FGFR2 (Homo sapiens (Human), UniProt P21802); test: FGFR Enzymatic Assay (FRET peptide phosphorylation), FGFR2; format: biochemical
Sequence of FGFR2 (P21802 22-821): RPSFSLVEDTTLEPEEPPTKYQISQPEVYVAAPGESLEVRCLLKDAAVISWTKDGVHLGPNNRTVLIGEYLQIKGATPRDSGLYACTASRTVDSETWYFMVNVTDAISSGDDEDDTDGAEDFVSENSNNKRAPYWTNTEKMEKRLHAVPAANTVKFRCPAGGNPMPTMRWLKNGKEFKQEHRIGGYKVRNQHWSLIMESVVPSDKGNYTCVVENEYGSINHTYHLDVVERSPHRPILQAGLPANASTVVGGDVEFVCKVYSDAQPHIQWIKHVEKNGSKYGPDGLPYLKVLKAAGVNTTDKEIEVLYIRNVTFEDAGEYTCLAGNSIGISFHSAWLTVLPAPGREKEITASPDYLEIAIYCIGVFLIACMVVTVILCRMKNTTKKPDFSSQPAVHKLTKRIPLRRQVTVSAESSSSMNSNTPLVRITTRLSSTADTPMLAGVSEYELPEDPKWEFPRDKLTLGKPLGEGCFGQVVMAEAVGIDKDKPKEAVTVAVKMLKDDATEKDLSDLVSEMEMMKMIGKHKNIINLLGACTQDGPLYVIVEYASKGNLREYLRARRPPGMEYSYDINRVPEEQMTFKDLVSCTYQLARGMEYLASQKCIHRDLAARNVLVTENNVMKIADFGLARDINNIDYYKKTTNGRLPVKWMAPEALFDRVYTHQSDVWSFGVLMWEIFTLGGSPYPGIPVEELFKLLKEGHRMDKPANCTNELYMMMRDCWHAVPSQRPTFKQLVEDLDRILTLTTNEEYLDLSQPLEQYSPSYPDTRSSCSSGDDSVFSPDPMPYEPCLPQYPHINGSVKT
Procedure: (§3) The inhibitor potency of the exemplified compounds was determined in an enzyme discontinuous assay that measures peptide phosphorylation using FRET measurements to detect product formation. Inhibitors were serially diluted in DMSO and a volume of 0.2 μL was transferred to the wells of a 384-well plate. For the isoforms of FGFR (−1, −2, −3 wild-type and mutant isoforms, −4) including phosphorylated and un-phosphorylated proteins, a 5 μL/well volume of enzyme diluted in assay buffer (50 mM HEPES, 10 mM MgCl2, 1 mM EGTA, 0.01% Tween-20, 5 mM DTT, pH 7.5) was added to the plate and pre-incubated with inhibitor for 5 to 15 minutes at ambient temperature. Appropriate controls (enzyme blank and enzyme with no inhibitor) were included on the plate. The reaction was initiated by the addition of a 5 μL/well volume containing both biotinylated […] […] The ATP Km values were pre-determined for each FGFR isoform in a separate series of experiments. […] The plate was allowed to equilibrate for ˜10 minutes at ambient temperature before scanning on a PheraStar plate reader (BMG Labtech) instrument.
(§4) Either GraphPad prism or XLfit was used to analyze the data. The IC50 values were derived by fitting the data to a four parameter logistic equation producing a sigmoidal dose-response curve with a variable Hill coefficient. Prism equation: Y=Bottom+(Top−Bottom)/(1+10^((Log IC50−X)*Hill slope)); […]

[4] = system: Caco-2 cells; test: Permeability in Caco-2 cells (absorptive direction A-B); format: in vitro ADME; details: 4% BSA in receiver
Procedure: as §1, §2

[5] = target: tyrosine-phosphorylated Fibroblast Growth Factor Receptor 2 alpha (FGFR2α) in KATO III cells (Homo sapiens, UniProt P21802); test: KATOIII Whole Blood pFGFR2α ELISA Assay; format: cell-based
Sequence of tyrosine-phosphorylated Fibroblast Growth Factor Receptor 2 alpha (FGFR2α) in KATO III cells (P21802 22-821 limits assumed): as the sequence (P21802 22-821) above
Procedure: To measure tyrosine-phosphorylated Fibroblast Growth Factor Receptor 2 alpha (FGFR2a) in KATO III spiked whole blood assay, KATO III cells were purchased from ATCC and maintained in Iscove's medium with 20% FBS (Gibco/Life Technologies). […] 50 uL of the cells were then spiked into a 96-deep well 2 ml polypropylene assay block (Costar) in the presence or absence of a concentration range of test compounds and 300 ul human heparinized whole blood (Biological Specialty Corp, Colmar Pa.). After 4 hours incubation in 37° C., the red cells were lysed using Qiagen EL buffer and the cell lysates were resuspended in lysis buffer (Cell Signaling) containing standard protease inhibitor cocktail (Calbiochem/EMD) and PMSF (Sigma) for 30 minutes ice. […] IC50 determination was performed by fitting the curve of inhibitor percent inhibition versus the log of the inhibitor concentration using the GraphPad Prism 5.0 software.

[6] = target: FGFR1 (Homo sapiens (Human), UniProt P11362); test: FGFR Enzymatic Assay (FRET peptide phosphorylation), FGFR1; format: biochemical
Sequence of FGFR1 (P11362 22-822): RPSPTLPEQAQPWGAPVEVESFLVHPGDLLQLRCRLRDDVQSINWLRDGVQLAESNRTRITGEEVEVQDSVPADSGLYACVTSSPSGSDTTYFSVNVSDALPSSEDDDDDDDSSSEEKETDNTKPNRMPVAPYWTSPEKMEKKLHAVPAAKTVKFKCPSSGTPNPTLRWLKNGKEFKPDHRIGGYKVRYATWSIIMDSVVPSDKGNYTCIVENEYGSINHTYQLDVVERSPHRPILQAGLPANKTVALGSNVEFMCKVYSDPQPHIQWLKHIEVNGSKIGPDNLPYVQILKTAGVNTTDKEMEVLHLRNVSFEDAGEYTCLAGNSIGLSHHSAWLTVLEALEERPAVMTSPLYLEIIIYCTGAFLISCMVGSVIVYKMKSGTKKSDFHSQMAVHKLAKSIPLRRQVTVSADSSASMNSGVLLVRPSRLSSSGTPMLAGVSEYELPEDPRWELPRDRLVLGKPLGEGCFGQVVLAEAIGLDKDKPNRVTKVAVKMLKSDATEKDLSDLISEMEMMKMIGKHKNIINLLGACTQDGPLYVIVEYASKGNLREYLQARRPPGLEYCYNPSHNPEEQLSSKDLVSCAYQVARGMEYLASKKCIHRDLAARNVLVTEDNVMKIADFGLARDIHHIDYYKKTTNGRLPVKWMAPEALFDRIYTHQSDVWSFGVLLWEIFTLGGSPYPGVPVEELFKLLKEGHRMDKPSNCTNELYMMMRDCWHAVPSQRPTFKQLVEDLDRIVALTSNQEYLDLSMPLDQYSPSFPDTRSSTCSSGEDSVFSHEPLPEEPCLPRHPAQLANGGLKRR
Procedure: as §3, §4

[7] = target: FGFR3 (Homo sapiens (Human), UniProt P22607); test: FGFR Enzymatic Assay (FRET peptide phosphorylation), FGFR3; format: biochemical
Sequence of FGFR3 (P22607 23-806): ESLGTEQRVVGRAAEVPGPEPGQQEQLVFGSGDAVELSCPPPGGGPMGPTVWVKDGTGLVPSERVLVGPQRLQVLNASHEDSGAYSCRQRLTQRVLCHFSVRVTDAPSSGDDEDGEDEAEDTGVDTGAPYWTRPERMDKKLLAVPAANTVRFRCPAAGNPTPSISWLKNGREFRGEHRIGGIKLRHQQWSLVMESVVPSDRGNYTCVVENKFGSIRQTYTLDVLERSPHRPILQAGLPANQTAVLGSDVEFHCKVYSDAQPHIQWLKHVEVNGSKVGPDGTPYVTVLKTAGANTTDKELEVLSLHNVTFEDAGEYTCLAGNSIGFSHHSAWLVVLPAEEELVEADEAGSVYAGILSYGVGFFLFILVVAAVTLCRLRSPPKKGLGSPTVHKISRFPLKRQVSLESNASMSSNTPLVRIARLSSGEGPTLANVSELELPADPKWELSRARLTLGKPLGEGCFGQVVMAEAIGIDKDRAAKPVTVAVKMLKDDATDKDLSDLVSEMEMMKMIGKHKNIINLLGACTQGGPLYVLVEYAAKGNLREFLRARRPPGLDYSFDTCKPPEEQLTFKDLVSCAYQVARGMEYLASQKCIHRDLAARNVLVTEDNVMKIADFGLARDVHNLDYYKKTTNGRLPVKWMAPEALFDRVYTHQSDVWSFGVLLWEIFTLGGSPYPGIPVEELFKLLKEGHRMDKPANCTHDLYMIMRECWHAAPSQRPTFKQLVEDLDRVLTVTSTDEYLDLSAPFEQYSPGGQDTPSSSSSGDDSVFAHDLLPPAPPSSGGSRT
Procedure: as §3, §4

[8] = target: P-gp (Homo sapiens (Human), UniProt P08183); test: Bidirectional transport across Caco-2 monolayers (P-gp mediated transport); format: in vitro ADME; details: for Papp A→B at 120 min, 3 μM / Papp B→A at 120 min, 3 μM / efflux ratio at 120 min, 3 μM / Papp A→B at 120 min, 30 μM / Papp B→A at 120 min, 30 μM / efflux ratio at 120 min, 30 μM / Papp A→B at 120 min, 1 μM / Papp B→A at 120 min, 1 μM: human; for efflux ratio at 120 min, 3 μM / efflux ratio at 120 min, 30 μM: read-out: Efflux Ratio (B-A/A-B)
Sequence of P-gp (P08183 whole entry): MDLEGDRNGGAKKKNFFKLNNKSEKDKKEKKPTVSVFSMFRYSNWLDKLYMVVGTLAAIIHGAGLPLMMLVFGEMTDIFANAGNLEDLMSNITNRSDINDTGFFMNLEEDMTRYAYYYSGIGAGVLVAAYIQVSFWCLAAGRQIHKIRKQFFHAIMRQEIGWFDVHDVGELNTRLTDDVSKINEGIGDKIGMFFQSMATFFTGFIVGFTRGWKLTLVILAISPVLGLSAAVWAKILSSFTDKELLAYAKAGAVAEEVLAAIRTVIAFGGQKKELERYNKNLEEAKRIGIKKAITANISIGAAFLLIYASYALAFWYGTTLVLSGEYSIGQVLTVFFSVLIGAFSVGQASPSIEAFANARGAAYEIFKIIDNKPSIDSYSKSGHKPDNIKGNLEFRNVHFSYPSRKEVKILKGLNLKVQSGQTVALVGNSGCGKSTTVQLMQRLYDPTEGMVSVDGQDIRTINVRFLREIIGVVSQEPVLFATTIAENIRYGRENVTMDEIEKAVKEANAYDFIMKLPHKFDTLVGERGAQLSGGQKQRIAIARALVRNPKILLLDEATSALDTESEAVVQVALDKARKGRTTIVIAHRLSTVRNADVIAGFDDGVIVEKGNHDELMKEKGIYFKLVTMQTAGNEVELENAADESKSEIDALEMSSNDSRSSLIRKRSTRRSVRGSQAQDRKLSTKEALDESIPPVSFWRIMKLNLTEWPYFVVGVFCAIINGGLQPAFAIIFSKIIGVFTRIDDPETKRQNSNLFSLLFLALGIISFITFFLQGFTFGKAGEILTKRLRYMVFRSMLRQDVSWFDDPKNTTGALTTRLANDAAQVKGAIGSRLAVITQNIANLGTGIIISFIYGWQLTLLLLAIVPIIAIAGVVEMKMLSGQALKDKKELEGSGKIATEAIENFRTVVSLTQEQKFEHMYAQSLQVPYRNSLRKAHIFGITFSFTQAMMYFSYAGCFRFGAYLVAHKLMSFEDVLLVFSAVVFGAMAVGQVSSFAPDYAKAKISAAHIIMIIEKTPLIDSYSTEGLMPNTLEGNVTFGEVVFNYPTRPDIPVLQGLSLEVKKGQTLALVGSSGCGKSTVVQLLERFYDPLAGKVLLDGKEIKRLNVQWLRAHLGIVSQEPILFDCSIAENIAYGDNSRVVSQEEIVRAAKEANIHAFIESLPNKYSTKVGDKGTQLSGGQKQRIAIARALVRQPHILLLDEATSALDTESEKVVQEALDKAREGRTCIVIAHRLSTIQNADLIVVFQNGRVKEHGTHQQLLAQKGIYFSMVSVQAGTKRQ
Procedure: as §1, §2
The efflux ratio from Caco-2 studies was calculated as the ratio of the Papp measured in the B-A direction divided by the Papp in the A-B direction.

[9] = Caco-2, with cyclosporine A (CSA) 10 μM, with CSA 10 μM
[10] = radioactive dose, single oral dose, healthy male subjects
[11] = Caco-2, with cyclosporine A (CSA) 5 μM, with CSA 5 μM

Row | SMILES | % of Administered Dose in Feces Samples ([1]; 24-48 h) | % of Administered Dose in Feces Samples ([1]; 48-72 h) | % of Administered Dose in Feces Samples ([1]; 72-96 h) | % of Administered Dose in Feces Samples ([1]; 96-120 h) | % of Administered Dose in Feces Samples ([1]; 120-144 h) | % of Administered Dose in Feces Samples, Sum [1] | Papp A→B at 120 min [2] | IC50 [3] | CACO2 Pm [4] | IC50 [6] | % of Administered Dose in Feces Samples ([1]; 0-24 h) | IC50 [7] | Papp A→B at 120 min, 30 μM ([8]; Caco-2, no inhibitor) | Papp B→A at 120 min, 30 μM ([8]; Caco-2, no inhibitor) | % Total Radioactivity Pool of Hamilton Pools (0-24 h) ([1]; 0-24 h) | also measured
1 | CCN1C(=O)N(c2c(F)c(O)cc(OC)c2F)Cc2cnc3[nH]c(C(=O)O)cc3c21 [Compound 5, 3-(2,6-difluoro-3-hydroxy-5-methoxyphenyl)-1-ethyl-2-oxo-2,3,4,7-tetrahydro-1H-pyrrolo[3′,2′: 5,6]pyrido[4,3-d]pyrimidine-8-carboxylic acid] | 0.4% | 0.6% | 0.5% | 0.0% | 0.1% | 1.6% | – | – | – | – | – | – | – | – | – | –
2 | [2H]C([2H])([2H])Oc1cc(OC([2H])([2H])[2H])c(F)c(N2Cc3cnc4[nH]c(CN5CCOCC5)cc4c3N(CC)C2=O)c1F [Compound 6, 3-(2,6-difluoro-3,5-bis(methoxy-d3)phenyl)-1-ethyl-8-(morpholinomethyl)-1,3,4,7-tetrahydro-2H-pyrrolo[3′,2′:5,6]pyrido[4,3-d]pyrimidin-2-one] | – | – | – | – | – | – | 16 ×10⁻⁶ cm/s | – | – | – | – | – | – | – | – | –
3 | CCN1C(=O)N(c2c(F)c(O)cc(OC)c2F)Cc2cnc3[nH]c(CN4CCOCC4)cc3c21 [Compound 2, 3-(2,6-difluoro-3-hydroxy-5-methoxyphenyl)-1-ethyl-8-(morpholinomethyl)-1,3,4,7-tetrahydro-2H-pyrrolo[3′,2′:5,6]pyrido[4,3-d]pyrimidin-2-one] | 11.4% | 14.5% | 14.5% | 1.6% | 2.9% | 44.4% | 0.5 ×10⁻⁶ cm/s | < 10 nM | 0.5 ×10E−6 cm/s | < 10 nM | <0.1% | < 10 nM | 0.41 ± 0.07 ×10⁻⁶ cm/s | 7.7 ± 2.8 ×10⁻⁶ cm/s | – | IC50 ([5]; KATO III cells spiked into human whole blood, 4 hours; read-out: FGFR2_WB_ELISA-KATOIII IC50): 50 to 250 nM; substrate for Pgp transport ([8]; comparison of efflux ratios at 30 μM): more effective substrate for Pgp transport than Compound 1; Papp A→B at 120 min, 3 μM [8, 9]: 0.65 ± 0.11 ×10⁻⁶ cm/s; Papp B→A at 120 min, 3 μM [8, 9]: 2.2 ± 0.49 ×10⁻⁶ cm/s; efflux ratio at 120 min, 3 μM [8, 9]: 3.3 ± 1.2; Papp A→B at 120 min, 30 μM [8, 9]: 2 ± 0.33 ×10⁻⁶ cm/s; Papp B→A at 120 min, 30 μM [8, 9]: 3.1 ± 1.2 ×10⁻⁶ cm/s; efflux ratio at 120 min, 30 μM [8, 9]: 1.5 ± 0.59; Papp A→B at 120 min, 3 μM ([8]; Caco-2, no inhibitor): 0.43 ± 0.15 ×10⁻⁶ cm/s; Papp B→A at 120 min, 3 μM ([8]; Caco-2, no inhibitor): 11 ± 8 ×10⁻⁶ cm/s; efflux ratio at 120 min, 3 μM ([8]; Caco-2, no inhibitor): 25 ± 11; efflux ratio at 120 min, 30 μM ([8]; Caco-2, no inhibitor): 19
4 | CCN1C(=O)N(c2c(F)c(O)cc(O)c2F)Cc2cnc3[nH]c(CN4CCOCC4)cc3c21 [Compound 4, 3-(2,6-difluoro-3,5-dihydroxyphenyl)-1-ethyl-8-(morpholinomethyl)-1,3,4,7-tetrahydro-2H-pyrrolo[3′,2′:5,6]pyrido[4,3-d]pyrimidin-2-one] | 0.5% | 2.3% | 1.1% | 0.2% | 0.4% | 4.5% | – | – | – | – | – | – | – | – | – | –
5 | CCN1C(=O)N(c2c(F)c(OC)cc(OC)c2F)C(O)c2cnc3[nH]c(CN4CCOCC4)cc3c21 (centres unmarked) [Compound 3, 3-(2,6-difluoro-3,5-dimethoxyphenyl)-1-ethyl-4-hydroxy-8-(morpholinomethyl)-1,3,4,7-tetrahydro-2H-pyrrolo[3′,2′:5,6]pyrido[4,3-d]pyrimidin-2-one] | – | – | – | – | – | – | – | 10 to 100 nM | – | 10 to 100 nM | – | 100 to 500 nM | – | – | 6.0% | IC50 ([5]; read-out: FGFR2_WB_ELISA-KATOIII IC50; KATO III cells spiked into human whole blood, 4 hours): 1000 to 3000 nM
6 | CCN1C(=O)N(c2c(F)c(OC)cc(OC)c2F)Cc2cnc3[nH]c(CN4CCOCC4)cc3c21 [Compound 1, 3-(2,6-difluoro-3,5-dimethoxyphenyl)-1-ethyl-8-(morpholin-4-ylmethyl)-1,3,4,7-tetrahydro-2H-pyrrolo[3′,2′:5,6]pyrido[4,3-d]pyrimidin-2-one] | 0.6% | 0.4% | 0.2% | 0.0% | 0.0% | 1.4% | 11 ×10⁻⁶ cm/s | – | 11 ×10E−6 cm/s | – | 0.1% | – | 21 ± 1.1 ×10⁻⁶ cm/s | 13 ± 1.6 ×10⁻⁶ cm/s | 64.5% | overall recovery of radioactivity in urine and feces ([1]; over the 240 hour study): 95.1%; time of peak total radioactivity and plasma Compound 1 concentrations ([1]; post dose, single oral dose, fasted): about 2.0 hours; dose recovered in feces [1, 10]: 82.4%; dose recovered in urine [1, 10]: 12.6%; % of Administered Dose in Urine Sample ([1]; urine, 0-6 h): 0.5%; % of Administered Dose in Urine Sample ([1]; urine, 6-12 h): 0.2%; % of Administered Dose in Urine Sample ([1]; urine, 12-24 h): 0.2%; % of Administered Dose in Urine Sample ([1]; urine, 24-48 h): 0.2%; % of Administered Dose in Urine Sample, Sum ([1]; urine, sum 0-48 h): 1.0%; Papp A→B at 120 min, 1 μM [8, 11]: 12 ± 2.3 ×10⁻⁶ cm/s; Papp B→A at 120 min, 1 μM [8, 11]: 9 ± 1.8 ×10⁻⁶ cm/s; Papp A→B at 120 min, 30 μM [8, 11]: 18 ± 0.75 ×10⁻⁶ cm/s; Papp B→A at 120 min, 30 μM [8, 11]: 12 ± 1.3 ×10⁻⁶ cm/s; Papp A→B at 120 min, 1 μM ([8]; Caco-2, no inhibitor): 7.3 ± 1.6 ×10⁻⁶ cm/s; Papp B→A at 120 min, 1 μM ([8]; Caco-2, no inhibitor): 11 ± 0.95 ×10⁻⁶ cm/s
